Earlier results in publication PMC12175978, “First-in-Human Serum Stability Studies of [^177Lu]Lu-AMTG: A Step Toward Improved GRPR-Targeted Radiopharmaceutical Therapy” (Journal of Nuclear Medicine, 2025).
Read-outs that look alike come from different tables or passages of the source.

in vivo serum stability in humans (in words) (in vivo) | in vivo serum stability in humans (in words) (human) | Substance
very stable |  | [^177Lu]Lu-DOTATATE
 | very stable | [^177Lu]Lu-PSMA-617
